Counter-ions that a name gives are not always drawn.
System: not given
Experiment: not given
Details: not given

Row | melting point | Compound
1 | 106 °C | COc1ccc(C(NC(=O)Cc2cnc(N3CCS(=O)(=O)CC3)nc2)c2ccc(C)o2)c(N2CCCCCC2)c1 (stereo not shown) (as salt: HCl) [Cpd. 45, N-{[2-(azepan-1-yl)-4-methoxyphenyl](5-methylfuran-2-yl)methyl}-2-[2-(1,1-dioxo-1-thiomorpholin-4-yl)pyrimidin-5-yl]acetamide]
2 | 77 °C | COc1ccc(C(NC(=O)C2(c3ccc(N4CCS(=O)(=O)CC4)cc3)CC2)c2ccc(C)o2)c(C)c1 (stereo not shown) (as salt: HCl) [Cpd. 44, 1-[4-(1,1-dioxo-1-thiomorpholin-4-yl)phenyl]-N-[(4-methoxy-2-methylphenyl)(5-methylfuran-2-yl)methyl]cyclopropane-1-carboxamide]
3 | 199 °C | Cc1ccc(C(NC(=O)Cc2cnc(N3CCS(=O)(=O)CC3)nc2)c2ccc(C)o2)c(Br)c1 (stereo not shown) (as salt: HCl) [Cpd. 34, N-[(2-bromo-4-methylphenyl)(5-methylfuran-2-yl)methyl]-2-[2-(1,1-dioxo-1-thiomorpholin-4-yl)pyrimidin-5-yl]acetamide]
4 | 67 °C | Cc1ccc(C(NC(=O)C(C)(C)c2ccc(N3CCS(=O)(=O)CC3)cc2)c2ccc(C)o2)c(C)c1 (stereo not shown) (as salt: HCl) [Cpd. 40, N-[(2,4-dimethylphenyl)(5-methylfuran-2-yl)methyl]-2-[4-(1,1-dioxo-1-thiomorpholin-4-yl)phenyl]-2-methylpropanamide]
5 | 118 °C | Cc1ccc(C(NC(=O)Cc2ccc(O)c(N3CCS(=O)(=O)CC3)c2)c2ccc(C)o2)c(N2CCCCC2)c1 (stereo not shown) (as salt: HCl) [Cpd. 39, 2-[3-(1,1-dioxo-1-thiomorpholin-4-yl)-4-hydroxyphenyl]-N-{[4-methyl-2-(piperidin-1-yl)phenyl](5-methylfuran-2-yl)methyl}acetamide]
6 | 162 °C | Cc1ccc(C(NC(=O)C2(c3cnc(N4CCS(=O)(=O)CC4)nc3)CC2)c2ccc(Cl)cc2C)o1 (stereo not shown) (as salt: HCl) [Cpd. 53, N-[(4-chloro-2-methylphenyl)(5-methylfuran-2-yl)methyl]-1-[2-(1,1-dioxo-1-thiomorpholin-4-yl)pyrimidin-5-yl]cyclopropane-1-carboxamide]
7 | 87 °C | Cc1ccc(C(NC(=O)C2(c3ccc(N4CCS(=O)(=O)CC4)cc3)CCC2)c2ccc(C)o2)c(N2CCCCC2)c1 (stereo not shown) (as salt: HCl) [Cpd. 55, 1-[4-(1,1-dioxo-1-thiomorpholin-4-yl)phenyl]-N-{[4-methyl-2-(piperidin-1-yl)phenyl](5-methylfuran-2-yl)methyl}cyclobutane-1-carboxamide]
8 | 90 °C | COc1ccc(C(NC(=O)C2(c3ccc(N4CCS(=O)(=O)CC4)cc3)CC2)c2ccc(C)o2)c(N2CCCCCC2)c1 (stereo not shown) (as salt: HCl) [Cpd. 46, N-{[2-(azepan-1-yl)-4-methoxyphenyl](5-methylfuran-2-yl)methyl}-1-[4-(1,1-dioxo-1-thiomorpholin-4-yl)phenyl]cyclopropane-1-carboxamide]
9 | 87 °C | Cc1ccc(C(NC(=O)C2(c3ncc(N4CCS(=O)(=O)CC4)cc3C)CC2)c2ccc(C)o2)c(C)c1 (stereo not shown) (as salt: HCl) [Cpd. 72, N-[(2,4-dimethylphenyl)(5-methylfuran-2-yl)methyl]-1-[5-(1,1-dioxo-1-thiomorpholin-4-yl)-3-methylpyridin-2-yl]cyclopropane-1-carboxamide]
10 | 101 °C | Cc1ccc(C(NC(=O)Cc2ccc(N3CCS(=O)(=O)CC3)cc2)c2ccc(C)o2)c(N2CCCCC2)c1 (stereo not shown) (as salt: HCl) [Cpd. 6, 2-[4-(1,1-dioxo-1-thiomorpholin-4-yl)phenyl]-N-{[4-methyl-2-(piperidin-1-yl)phenyl](5-methylfuran-2-yl)methyl}acetamide]
11 | 109 °C | Cc1ccc(C(NC(=O)Cc2ccc(N3CCS(=O)(=O)CC3)c(C)c2)c2ccccc2)c(N2CC3CC3C2)c1 (stereo not shown) (as salt: HCl) [Cpd. 23, N-[(2-{3-azabicyclo[3.1.0]hexan-3-yl}-4-methylphenyl)(phenyl)methyl]-2-[4-(1,1-dioxo-1-thiomorpholin-4-yl)-3-methylphenyl]acetamide]
12 | 69 °C | Cc1ccc(C(NC(=O)Cc2cnc(N3CCOCC3)nc2)c2ccc(C)o2)c(N2CCCCC2)c1 (stereo not shown) (as salt: HCl) [Cpd. 26, N-{[4-methyl-2-(piperidin-1-yl)phenyl](5-methylfuran-2-yl)methyl}-2-[2-(morpholin-4-yl)pyrimidin-5-yl]acetamide]
13 | 97 °C | Cc1ccc(C(NC(=O)Cc2ccc(N3CCS(=O)(=O)CC3)c(C)c2)c2ccc(C)o2)c(N2CCCCC2)c1 (stereo not shown) (as salt: HCl) [Cpd. 12, 2-[4-(1,1-dioxo-1-thiomorpholin-4-yl)-3-methylphenyl]-N-{[4-methyl-2-(piperidin-1-yl)phenyl](5-methylfuran-2-yl)methyl}acetamide]
14 | 208 °C | Cc1ccc(C(NC(=O)Cc2cnc(N3CCS(=O)(=O)CC3)nc2)c2ccc(C)o2)c(Cl)c1 (stereo not shown) (as salt: HCl) [Cpd. 51, N-[(2-chloro-4-methylphenyl)(5-methylfuran-2-yl)methyl]-2-[2-(1,1-dioxo-1-thiomorpholin-4-yl)pyrimidin-5-yl]acetamide]
15 | 106 °C | COc1ccc(C(NC(=O)Cc2ccc(N3CCS(=O)(=O)CC3)c(C)c2)c2ccc(C)o2)c(N2CCC(C(F)(F)F)CC2)c1 (stereo not shown) (as salt: HCl) [Cpd. 14, 2-[4-(1,1-dioxo-1-thiomorpholin-4-yl)-3-methylphenyl]-N-({4-methoxy-2-[4-(trifluoromethyl)piperidin-1-yl]phenyl}(5-methylfuran-2-yl)methyl)acetamide]
16 | 101 °C | COc1ccc(C(NC(=O)Cc2ccc(N3CCS(=O)(=O)CC3)c(C)c2)c2ccc(C)o2)c(N2CCC(C)CC2)c1 (stereo not shown) (as salt: HCl) [Cpd. 13, 2-[4-(1,1-dioxo-1-thiomorpholin-4-yl)-3-methylphenyl]-N-{[4-methoxy-2-(4-methylpiperidin-1-yl)phenyl](5-methylfuran-2-yl)methyl}acetamide]

Target: T1, human RORγt (Homo sapiens, UniProt P51449)
T1 sequence (P51449 1-497 isoform P51449-2): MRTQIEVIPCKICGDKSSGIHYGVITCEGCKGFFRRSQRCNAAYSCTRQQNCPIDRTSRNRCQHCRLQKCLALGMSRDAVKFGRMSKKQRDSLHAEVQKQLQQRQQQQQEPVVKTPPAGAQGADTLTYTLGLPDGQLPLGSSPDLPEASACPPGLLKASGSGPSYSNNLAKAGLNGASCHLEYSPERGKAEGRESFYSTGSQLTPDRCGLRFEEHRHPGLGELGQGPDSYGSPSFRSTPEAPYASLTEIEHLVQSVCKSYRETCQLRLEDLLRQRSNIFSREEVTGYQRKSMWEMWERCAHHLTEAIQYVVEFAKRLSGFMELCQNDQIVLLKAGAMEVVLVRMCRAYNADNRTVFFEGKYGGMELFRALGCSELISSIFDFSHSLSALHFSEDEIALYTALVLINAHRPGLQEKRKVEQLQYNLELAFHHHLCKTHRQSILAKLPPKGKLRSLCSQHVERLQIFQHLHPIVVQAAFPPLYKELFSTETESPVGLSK
Experiment: RORE Luciferase/RORγt transactivation assay (IL-17 promoter luciferase reporter in COS-7 cells)
Type: cell-based
Parameters: V5-His (named only through the vector pcDNA3.1D/V5-His-TOPO); expressed in transfected cells; host or cells: COS-7 (monkey kidney)
Details: RORγt activity inhibition, luciferase activity in transfected COS-7 cells, 20 h
Procedure: It is well known that RORγ binds to a conserved non-coding sequence (CNS) enhancer element in the IL-17 promoter.
Culture medium was changed every 2 days.
The 4.3 Kb human IL-17 promoter containing the RORγ-specific CNS enhancer element was PCR amplified from human genomic DNA and cloned into a pGL3-TKLuc2Cp reporter plasmid.
The luciferase reporter plasmid and the RORγt overexpression plasmid were transfected into COS-7 cell line using 4 μL JetPEI™/μg of DNA. Briefly, 150 ng of DNA (ration 1/2 between RORE-Tk Luc2Cp and cDNA RORγt or the empty vector for the negative control) was served to transfect adherent COS-7 cells in a […] culture flask, in complete medium (see cos-7 cell line culture).
Cells were then detached (using trypsin) and washed by centrifugation at 300 g for 10 minutes. Cell pellet was resuspended in serum free/phenol red free DMEM and seeded in 384 well plates at a density of 10000 cells/well and then incubated for 4 h at 37° C.
Compounds were dissolved in 100% DMSO to obtain 10 mM stock solutions. For each compound, test concentrations were diluted in serum free/phenol red free DMEM using the Genesis Freedom 200™ (TECAN) and added to the cells to obtain a 0.3% DMSO final concentration (in a final volume of 40 μL per well).
The luciferase activity was then measured with 40 μL/well steady-Glo Luciferase assay system (Promega, Madison, Wis.) and after incubation at room temperature for 30 minutes. The luminescence was estimated using the Ultra384 reader (TECAN). Data were collected and analyzed using GraphPad Prism software (GraphPad Software V5.02, San Diego Calif. USA). IC50 in μM and E max in % were reported for each compound.

Row | IC50 | Compound
17 | 1 to 10 µM | Cc1ccc(C(NC(=O)Cc2cnc(N3CCS(=O)(=O)CC3)nc2)c2ccc(C)o2)c(C(F)(F)F)c1 (stereo not shown) [Cpd. 33, 2-[2-(1,1-dioxo-1-thiomorpholin-4-yl)pyrimidin-5-yl]-N-{[4-methyl-2-(trifluoromethyl)phenyl](5-methylfuran-2-yl)methyl}acetamide]
18 | 0.1 to 1 µM | Cc1ccc(C(NC(=O)Cc2ccc(CO)c(N3CCS(=O)(=O)CC3)c2)c2ccc(C)o2)c(N2CCCCC2)c1 (stereo not shown) [Cpd. 63, 2-[3-(1,1-dioxo-1-thiomorpholin-4-yl)-4-(hydroxymethyl)phenyl]-N-{[4-methyl-2-(piperidin-1-yl)phenyl](5-methylfuran-2-yl)methyl}acetamide]
19 | 1 to 10 µM | Cc1ccc(C(NC(=O)Cc2cnc(N3CCS(=O)(=O)CC3)nc2)c2ccc(Cl)cc2Cl)o1 (stereo not shown) [Cpd. 50, N-[(2,4-dichlorophenyl)(5-methylfuran-2-yl)methyl]-2-[2-(1,1-dioxo-1-thiomorpholin-4-yl)pyrimidin-5-yl]acetamide]
20 | 0.1 to 1 µM | COCc1ccc(CC(=O)NC(c2ccc(C)o2)c2ccc(C)cc2N2CCCCC2)cc1N1CCS(=O)(=O)CC1 (stereo not shown) [Cpd. 62, 2-[3-(1,1-dioxo-1-thiomorpholin-4-yl)-4-(methoxymethyl)phenyl]-N-{[4-methyl-2-(piperidin-1-yl)phenyl](5-methylfuran-2-yl)methyl}acetamide]
21 | 0.1 to 1 µM | Cc1ccc(C(NC(=O)C2(c3ccc(N4CCS(=O)(=O)CC4)cn3)CC2)c2ccc(C)o2)c(C)c1 (stereo not shown) [Cpd. 73, N-[(2,4-dimethylphenyl)(5-methylfuran-2-yl)methyl]-1-[5-(1,1-dioxo-1-thiomorpholin-4-yl)pyridin-2-yl]cyclopropane-1-carboxamide]
22 | < 0.1 µM | Cc1ccc(C(NC(=O)Cc2ccc(N3CCS(=O)(=O)CC3)c(O)c2)c2ccc(C)o2)c(N2CCCCC2)c1 (stereo not shown) [Cpd. 61, 2-[4-(1,1-dioxo-1-thiomorpholin-4-yl)-3-hydroxyphenyl]-N-{[4-methyl-2-(piperidin-1-yl)phenyl](5-methylfuran-2-yl)methyl}acetamide]

From patent publication US11077115B2, “Rorgamma modulators and uses thereof” (Genfit, priority 2017, dated 2021)
